Read-outs that look alike come from different tables or passages of the source.
How the values were obtained:
RKO = experiment: cells; type: cell-based; conditions: for IC50: read-out: Basal_Viability ATP RKO summarized IC50
HeLa cells = experiment: cells; type: cell-based;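 for Hela CellCycMod PI 4N summarized IC50: value tracks stimulation of 4N DNA content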
DLD-1 = experiment: cells; type: cell-based; conditions: for IC50: read-out: Basal_Viability ATP DLD-1 summarized IC50
HCT116 = experiment: cells; type: cell-based; conditions: for IC50: read-out: Basal_Viability ATP HCT116 summarized IC50
HT-29 = experiment: cells; type: cell-based; conditions: for IC50: read-out: Basal_Viability ATP HT-29 summarized IC50
SNU-C1 = experiment: cells; type: cell-based; conditions: for IC50: read-out: Basal_Viability ATP SNU-C1 summarized IC50
Colo320 = experiment: cells; type: cell-based; conditions: for IC50: read-out: Basal_Viability ATP Colo 320 summarized IC50
SW480 = experiment: cells; type: cell-based; conditions: for IC50: read-out: Basal_Viability ATP SW480 summarized IC50
[1] = tested on: ECFC/ADSC co-culture cell nuclei number
[2] = tested on: endothelial tube formation in co-cultures of ECFCs and ADSCs treated with VEGF; experiment: cells; type: cell-based, human

Structure (SMILES): CC[n+]1c(-c2ccccc2)c2cc(N)ccc2c2ccc(N)cc21 [NCGC00091387-08]
- IC50 (RKO; assay number 29, basal): 3.35 µM
- IC50 (HeLa cells; assay number 14, 2N, read-out: Hela CellCycMod PI 2N summarized IC50): > 10 µM
- IC50 (HeLa cells; assay number 15, S phase, read-out: Hela CellCycMod PI S Phase summarized IC50): > 10 µM
- IC50 (HeLa cells; assay number 16, 4N, read-out: Hela CellCycMod PI 4N summarized IC50): > 10 µM
- IC50 (HeLa cells; assay number 17, MI, read-out: Hela CellCycMod PI MI summarized IC50): > 10 µM
- IC50 (HeLa cells; assay number 18, cell number, read-out: Hela CellCycMod PI Cell Number summarized IC50): > 10 µM
- IC50 (DLD-1; assay number 23, basal): > 20 µM
- IC50 (HCT116; assay number 25, basal): 4.44 µM
- IC50 (HT-29; assay number 28, basal): > 20 µM
- IC50 (SNU-C1; assay number 30, basal): > 20 µM
- IC50 (Colo320; assay number 27, basal): > 20 µM
- IC50 (SW480; assay number 24, basal): > 20 µM

Structure (SMILES): Cc1c(C)c2c(c(C)c1O)CC[C@@](C)(CCC[C@H](C)CCC[C@H](C)CCCC(C)C)O2 [NCGC00142625-10]
- IC50 (RKO; assay number 29, basal): 2.61 µM
- IC50 (DLD-1; assay number 23, basal): > 20 µM
- IC50 (HCT116; assay number 25, basal): > 20 µM
- IC50 (HT-29; assay number 28, basal): > 20 µM
- IC50 ([1]; read-out: VEGF_ADSC\ECFC Angio Hoechst NucArea summarized IC50): > 10 µM
- IC50 (SNU-C1; assay number 30, basal): > 20 µM
- IC50 (Colo320; assay number 27, basal): > 20 µM
- IC50 ([2]; read-out: VEGF_ADSC\ECFC Angio CD31 TubeArea summarized IC50): > 10 µM
- IC50 (SW480; assay number 24, basal): > 20 µM

Structure (SMILES): Cc1cc(C(C#N)c2ccc(Cl)cc2)c(Cl)cc1NC(=O)c1cc(I)cc(I)c1O (centres unmarked) [NCGC00166312-02]
- Basal_Viability ATP RKO IC50/EC50 (RKO): 0.1971 µM
- Basal_Viability ATP DLD-1 IC50/EC50 (DLD-1): 0.069 µM
- Basal_Viability ATP HCT116 IC50/EC50 (HCT116): 0.09775 µM
- Basal_Viability ATP HT-29 IC50/EC50 (HT-29): 0.1255 µM
- VEGF_ADSC\ECFC Angio Hoechst NucArea IC50/EC50 [1]: 7.36 µM
- Basal_Viability ATP SNU-C1 IC50/EC50 (SNU-C1): 0.0438 µM
- Basal_Viability ATP Colo 320 IC50/EC50 (Colo320): 0.116 µM
- VEGF_ADSC\ECFC Angio CD31 TubeArea IC50/EC50 [2]: > 10 µM
- Basal_Viability ATP SW480 IC50/EC50 (SW480): 0.046 µM

Structure (SMILES): NCCCC[C@H](N[C@@H](CCc1ccccc1)C(=O)O)C(=O)N1CCC[C@H]1C(=O)O [NCGC00179623-04]
- Basal_Viability ATP RKO IC50/EC50 (RKO; assay number 29, basal): 8.8772 µM
- Hela CellCycMod PI 2N IC50/EC50 (HeLa cells; assay number 14, 2N): > 10 µM
- Hela CellCycMod PI S Phase IC50/EC50 (HeLa cells; assay number 15, S phase): > 10 µM
- Hela CellCycMod PI 4N IC50/EC50 (HeLa cells; assay number 16, 4N): > 10 µM
- Hela CellCycMod PI MI IC50/EC50 (HeLa cells; assay number 17, MI): > 10 µM
- Hela CellCycMod PI Cell Number IC50/EC50 (HeLa cells; assay number 18, cell number): > 10 µM
- Basal_Viability ATP DLD-1 IC50/EC50 (DLD-1; assay number 23, basal): 2.2356 µM
- Basal_Viability ATP HCT116 IC50/EC50 (HCT116; assay number 25, basal): 3.3925 µM
- Basal_Viability ATP HT-29 IC50/EC50 (HT-29; assay number 28, basal): > 6.667 µM
- Basal_Viability ATP SNU-C1 IC50/EC50 (SNU-C1; assay number 30, basal): 2.5347 µM
- Basal_Viability ATP Colo 320 IC50/EC50 (Colo320; assay number 27, basal): > 20 µM
- Basal_Viability ATP SW480 IC50/EC50 (SW480; assay number 24, basal): 4.028 µM

Structure (SMILES): C/C(=C(/OCCOc1ccc(Cl)cc1)c1ccc(Cl)cc1Cl)n1ccnc1 [NCGC00249921-01]
- Basal_Viability ATP RKO IC50/EC50 (RKO): > 6.6667 µM
- Basal_Viability ATP DLD-1 IC50/EC50 (DLD-1): 4.1804 µM
- Basal_Viability ATP HCT116 IC50/EC50 (HCT116): > 6.6667 µM
- Basal_Viability ATP HT-29 IC50/EC50 (HT-29): > 6.667 µM
- VEGF_ADSC\ECFC Angio Hoechst NucArea IC50/EC50 [1]: 9.416 µM
- Basal_Viability ATP SNU-C1 IC50/EC50 (SNU-C1): 2.3457 µM
- Basal_Viability ATP Colo 320 IC50/EC50 (Colo320): 5.8551 µM
- VEGF_ADSC\ECFC Angio CD31 TubeArea IC50/EC50 [2]: 5.8398 µM
- Basal_Viability ATP SW480 IC50/EC50 (SW480): 8.4611 µM

Structure (SMILES): CCOC(=O)Oc1ccc(CCNC(=O)[C@H](CCSC)NC(C)=O)cc1OC(=O)OCC [NCGC00249931-01]
- Basal_Viability ATP RKO IC50/EC50 (RKO; assay number 29): > 20 µM
- Basal_Viability ATP DLD-1 IC50/EC50 (DLD-1; assay number 23): > 20 µM
- Basal_Viability ATP HCT116 IC50/EC50 (HCT116; assay number 25, basal): > 20 µM
- Basal_Viability ATP HT-29 IC50/EC50 (HT-29; assay number 28): > 20 µM
- Basal_Viability ATP SNU-C1 IC50/EC50 (SNU-C1; assay number 30): > 20 µM
- Basal_Viability ATP Colo 320 IC50/EC50 (Colo320; assay number 27): > 20 µM
- Basal_Viability ATP SW480 IC50/EC50 (SW480; assay number 24): > 20 µM

Structure (SMILES): O=c1c(C2CC(c3ccc(-c4ccc(Br)cc4)cc3)Cc3ccccc32)c(O)sc2ccccc12 (centres unmarked) [NCGC00262959-01]
- Basal_Viability ATP RKO IC50/EC50 (RKO; assay number 29): 0.5378 µM
- Basal_Viability ATP DLD-1 IC50/EC50 (DLD-1; assay number 23): 0.239 µM
- Basal_Viability ATP HCT116 IC50/EC50 (HCT116; assay number 25, basal): 0.4855 µM
- Basal_Viability ATP HT-29 IC50/EC50 (HT-29; assay number 28): 0.4364 µM
- Basal_Viability ATP SNU-C1 IC50/EC50 (SNU-C1; assay number 30): 0.2516 µM
- Basal_Viability ATP Colo 320 IC50/EC50 (Colo320; assay number 27): 0.7354 µM
- Basal_Viability ATP SW480 IC50/EC50 (SW480; assay number 24): 0.187 µM

— paper PMC4503722, “Novel Phenotypic Outcomes Identified for a Public Collection of Approved Drugs from a Publicly Accessible Panel of Assays” (PLoS ONE, 2015)
